Patent US20230001396A1, “COMPOSITIONS AND METHODS FOR CONTROLLED DELIVERY AND PROTECTION OF THERAPEUTIC AGENTS” (Board of Regents, The University of Texas System, priority 2019, published 2023)

Experiment: Ex vitro study: fluorescence intensity over time in 1×PBS at 37° C.
Type: physicochemical
Conditions: 1×PBS buffer pH 7.4 and 5.4, 37° C.
Experimental: Ex vitro study: In order to observe the stability of PLGA microparticles in blood ex vitro study was done by the presence of fluorescence intensity after treating the Cy5@ZIF-8@PLGA particles in 1×PBS buffer. The experiment was performed at two different pH conditions. One was pH 7.4 which is the normal blood pH and another was pH 5.4 which mimic the extreme pH condition of blood in different disease states. The fluorescence intensity was measured at different time intervals. For that four types of samples were prepared every time. In two Eppendorf tubes PBS buffer of pH 7.4 and 5.4 were taken and fluorescence intensity was measured and found no peaks. PLGA microparticles were dissolved in 1×PBS buffer pH 7.4 and pH 5.4 with 10 mins centrifugation in Beckman ultra-small centrifuge machine at 3225×g. Only the dissolved clear supernatant was taken and kept in a hot room (37° C.). In another two Eppendorf tubes, Cy5 dye was dissolved in 1×PBS buffer pH 7.4 and 5.4 and kept under the same conditions as the PLGA microparticles to validate the change of fluorescence intensity of Cy5 dye at 37° C. (FIGS. 8A-8D).
It is believed that the PLGA microparticles further preserve the Cy5 dye and act as a sustained release protective shell which can enhance the release period of model drug Cy5 at blood pH.

## C[N+]1=C(C=CC=CC=C2N(CCCCCC(=O)O)c3ccc(S(=O)(=O)O)cc3C2(C)C)C(C)(C)c2cc(S(=O)(=O)[O-])ccc21 [Cy5 dye, 3H-Indolium, 2-[5-[1-(5-Carboxypentyl)-1,3-dihydro-3,3-dimethyl-5-sulfo-2H-indol-ylidene]-1,3-pentadien-1-yl]-1-methyl-3,3-dimethyl-5-sulfonate]
  change of fluorescence intensity over time: did not show any regular change of fluorescence intensity over time
